{
  "source": "patent US20260232767A1",
  "about": "“INTERLEUKIN-23 RECEPTOR ANTAGONIST PEPTIDES FOR USE IN THE TREATMENT OF PSORIASIS” (Janssen Pharmaceutica NV, priority 2023, published 2026)",
  "experiment": "Plasma concentrations (PK), Example 1",
  "format": "in vivo, human",
  "conditions": "for level at 672 h / level at 1344 h / level at 2016 h / level at 2688 h: 100 mg; for level at 672 h: Week 4; for level at 1344 h: Week 8",
  "method": "For QD dosing, peak concentration was defined as any PK sample taken between 0.25 to <6 hours after the last morning dose and trough concentration was at least 20 hours after the last morning dose. For BID dosing, peak concentration was defined as any PK sample taken between 0.25 to <4 hours after the last dose and trough concentration was at least 8 hours after the last dose.",
  "key": {"[1]": {"conditions": "human, plasma, oral, 100 mg BID, Peak, read-out: Plasma concentration, Mean"}, "[2]": {"conditions": "human, plasma, oral, 100 mg BID, Peak, read-out: Plasma concentration, Median"}, "[3]": {"conditions": "human, plasma, oral, 100 mg QD, Intermediate, read-out: Plasma concentration, Geometric Mean"}, "[4]": {"conditions": "human, plasma, oral, 100 mg QD, Peak, read-out: Plasma concentration, Geometric Mean"}, "[5]": {"conditions": "human, plasma, oral, 100 mg QD, Peak, read-out: Plasma concentration, Mean"}, "[6]": {"conditions": "human, plasma, oral, 100 mg QD, Peak, read-out: Plasma concentration, Median"}},
  "note": "Like-named read-outs stand apart in the source and are kept apart here.",
  "data": [
    {"compound": "CC(=O)NCCCC[C@@H]1NC(=O)[C@H](Cc2c[nH]c3c(C)cccc23)NC(=O)[C@H]([C@@H](C)O)NC(=O)[C@H](CC(N)=O)NC(=O)[C@@H](NC(C)=O)C(C)(C)SSC(C)(C)[C@@H](C(=O)N[C@@H](Cc2ccc(OCCN)cc2)C(=O)N[C@@H](Cc2ccc3ccccc3c2)C(=O)NC2(C(=O)N[C@@H](CCC(=O)O)C(=O)N[C@@H](CC(N)=O)C(=O)N[C@@H](Cc3cccnc3)C(=O)N(C)CC(N)=O)CCOCC2)NC1=O", "note": "[IL-23 receptor antagonist peptide, Ac-[Pen]*-N-T-[W(7-Me)]-[Lys(Ac)]-[Pen]*-Phe[4-(2-aminoethoxy)]-[2-Nal]-[THP]-E-N-[3-Pal]-Sarc-NH2 (*[Pen]-[Pen]* formdisulfidebond)]", "values": [
      {"measurement": "level at 672 h", "setting": "[1]", "value": 2.05, "unit": "ng/mL"},
      {"measurement": "level at 672 h", "setting": "[2]", "value": 1.84, "unit": "ng/mL"},
      {"measurement": "level at 1344 h", "setting": "human, plasma, oral, 100 mg BID, Intermediate, read-out: Plasma concentration, Geometric Mean", "value": 0.675, "unit": "ng/mL"},
      {"measurement": "level at 1344 h", "setting": "human, plasma, oral, 100 mg BID, Intermediate, read-out: Plasma concentration, Mean", "value": 1.04, "unit": "ng/mL"},
      {"measurement": "level at 1344 h", "setting": "human, plasma, oral, 100 mg BID, Intermediate, read-out: Plasma concentration, Median", "value": 0.84, "unit": "ng/mL"},
      {"measurement": "level at 1344 h", "setting": "human, plasma, oral, 100 mg BID, Peak, read-out: Plasma concentration, Geometric Mean", "value": 1.86, "unit": "ng/mL"},
      {"measurement": "level at 1344 h", "setting": "[1]", "value": 3.55, "unit": "ng/mL"},
      {"measurement": "level at 1344 h", "setting": "[2]", "value": 1.44, "unit": "ng/mL"},
      {"measurement": "level at 1344 h", "setting": "human, plasma, oral, 100 mg BID, Trough, read-out: Plasma concentration, Geometric Mean", "value": 0.664, "unit": "ng/mL"},
      {"measurement": "level at 1344 h", "setting": "human, plasma, oral, 100 mg BID, Trough, read-out: Plasma concentration, Mean", "value": 0.961, "unit": "ng/mL"},
      {"measurement": "level at 1344 h", "setting": "human, plasma, oral, 100 mg BID, Trough, read-out: Plasma concentration, Median", "value": 0.744, "unit": "ng/mL"},
      {"measurement": "level at 2016 h", "setting": "human, plasma, oral, 100 mg BID, Week 12, Trough, read-out: Plasma concentration, Mean", "value": 1.1, "unit": "ng/mL"},
      {"measurement": "level at 672 h", "setting": "[3]", "value": 0.683, "unit": "ng/mL"},
      {"measurement": "level at 672 h", "setting": "[4]", "value": 0.968, "unit": "ng/mL"},
      {"measurement": "level at 672 h", "setting": "[5]", "value": 1.31, "unit": "ng/mL"},
      {"measurement": "level at 672 h", "setting": "[6]", "value": 1.34, "unit": "ng/mL"},
      {"measurement": "level at 1344 h", "setting": "[3]", "value": 0.235, "unit": "ng/mL"},
      {"measurement": "level at 1344 h", "setting": "human, plasma, oral, 100 mg QD, Intermediate, read-out: Plasma concentration, Mean", "value": 0.235, "unit": "ng/mL"},
      {"measurement": "level at 1344 h", "setting": "human, plasma, oral, 100 mg QD, Intermediate, read-out: Plasma concentration, Median", "value": 0.235, "unit": "ng/mL"},
      {"measurement": "level at 1344 h", "setting": "[4]", "value": 0.892, "unit": "ng/mL"},
      {"measurement": "level at 1344 h", "setting": "[5]", "value": 1.15, "unit": "ng/mL"},
      {"measurement": "level at 1344 h", "setting": "[6]", "value": 0.873, "unit": "ng/mL"},
      {"measurement": "level at 1344 h", "setting": "human, plasma, oral, 100 mg QD, Trough, read-out: Plasma concentration, Geometric Mean", "value": 0.175, "unit": "ng/mL"},
      {"measurement": "level at 1344 h", "setting": "human, plasma, oral, 100 mg QD, Trough, read-out: Plasma concentration, Mean", "value": 0.229, "unit": "ng/mL"},
      {"measurement": "level at 1344 h", "setting": "human, plasma, oral, 100 mg QD, Trough, read-out: Plasma concentration, Median", "value": 0.149, "unit": "ng/mL"},
      {"measurement": "level at 2016 h", "setting": "human, plasma, oral, 100 mg QD, Week 12, Trough, read-out: Plasma concentration, Mean", "value": 0.355, "unit": "ng/mL"},
      {"measurement": "level at 2016 h", "setting": "human, plasma, oral, weight >90 kg, 100 mg BID, Week 12, Intermediate, read-out: Plasma concentration, Geometric Mean", "value": 0.601, "unit": "ng/mL"},
      {"measurement": "level at 2016 h", "setting": "human, plasma, oral, weight >90 kg, 100 mg BID, Week 12, Peak, read-out: Plasma concentration, Geometric Mean", "value": 2.13, "unit": "ng/mL"},
      {"measurement": "level at 2016 h", "setting": "human, plasma, oral, weight >90 kg, 100 mg BID, Week 12, Peak, read-out: Plasma concentration, Mean", "value": 6.41, "unit": "ng/mL"},
      {"measurement": "level at 2016 h", "setting": "human, plasma, oral, weight >90 kg, 100 mg BID, Week 12, Peak, read-out: Plasma concentration, Median", "value": 1.29, "unit": "ng/mL"},
      {"measurement": "level at 2688 h", "setting": "human, plasma, oral, weight >90 kg, 100 mg BID, Week 16, Intermediate, read-out: Plasma concentration, Mean", "value": 0.724, "unit": "ng/mL"},
      {"measurement": "level at 2688 h", "setting": "human, plasma, oral, weight >90 kg, 100 mg BID, Week 16, Trough, read-out: Plasma concentration, Geometric Mean", "value": 0.522, "unit": "ng/mL"},
      {"measurement": "level at 2688 h", "setting": "human, plasma, oral, weight >90 kg, 100 mg BID, Week 16, Trough, read-out: Plasma concentration, Mean", "value": 0.755, "unit": "ng/mL"},
      {"measurement": "level at 2688 h", "setting": "human, plasma, oral, weight >90 kg, 100 mg BID, Week 16, Trough, read-out: Plasma concentration, Median", "value": 0.428, "unit": "ng/mL"},
      {"measurement": "level at 2016 h", "setting": "human, plasma, oral, weight >90 kg, 100 mg QD, Week 12, Intermediate, read-out: Plasma concentration, Geometric Mean", "value": 0.75, "unit": "ng/mL"},
      {"measurement": "level at 2016 h", "setting": "human, plasma, oral, weight >90 kg, 100 mg QD, Week 12, Peak, read-out: Plasma concentration, Geometric Mean", "value": 1.04, "unit": "ng/mL"},
      {"measurement": "level at 2016 h", "setting": "human, plasma, oral, weight >90 kg, 100 mg QD, Week 12, Peak, read-out: Plasma concentration, Mean", "value": 1.04, "unit": "ng/mL"},
      {"measurement": "level at 2016 h", "setting": "human, plasma, oral, weight >90 kg, 100 mg QD, Week 12, Peak, read-out: Plasma concentration, Median", "value": 1.09, "unit": "ng/mL"},
      {"measurement": "level at 2688 h", "setting": "human, plasma, oral, weight >90 kg, 100 mg QD, Week 16, Intermediate, read-out: Plasma concentration, Mean", "value": 0.378, "unit": "ng/mL"},
      {"measurement": "level at 2688 h", "setting": "human, plasma, oral, weight >90 kg, 100 mg QD, Week 16, Trough, read-out: Plasma concentration, Geometric Mean", "value": 0.102, "unit": "ng/mL"},
      {"measurement": "level at 2688 h", "setting": "human, plasma, oral, weight >90 kg, 100 mg QD, Week 16, Trough, read-out: Plasma concentration, Mean", "value": 0.11, "unit": "ng/mL"},
      {"measurement": "level at 2688 h", "setting": "human, plasma, oral, weight >90 kg, 100 mg QD, Week 16, Trough, read-out: Plasma concentration, Median", "value": 0.129, "unit": "ng/mL"},
      {"measurement": "half-life", "setting": "human, plasma, oral, read-out: Terminal elimination half-life", "value": "9 to 12", "unit": "h"},
      {"measurement": "Attainment of steady state conditions", "setting": "oral daily dosing", "value": "≤ 1", "unit": "Week"}
    ]}
  ]
}
